From article PMC10866072, “Design, synthesis, molecular modelling and biological evaluation of novel 6-amino-5-cyano-2-thiopyrimidine derivatives as potent anticancer agents against leukemia and apoptotic inducers” (Journal of Enzyme Inhibition and Medicinal Chemistry, 2024)

Key:
ACHN = format: cell-based
SNB-19 = format: cell-based
[1] = test system: Bcl2 protein in leukaemia SR cells; experiment: Western blot; format: cell-based, human
Procedure: (§1) To assess the effect of compound 1c on protein expression of apoptotic and anti-apoptotic proteins levels, western blotting for selected candidate genes were performed[96]^,[97].Briefly, equal amounts (20 µg) of protein samples were mixed and boiled with SDS Loading buffer for 10 min, allowed to cool on ice and then loaded into SDS-polyacrylamide gel and separated by Cleaver electrophoresis unit (Cleaver, UK), transferred onto polyvinylidene fluoride (PVDF) membranes (BioRad) for 30 min using a Semi-dry Electro blotter (Biorad, USA) at 2.5 A and 25 V for 30 min. Additionally, the membrane was blocked by 5% non-fat dry milk solution in TBS-T for two hours at RT, in order to reduce non-specific protein interactions between the membrane and the antibody. Furthermore, the membrane was incubated overnight at 4 °C with primary antibodies, anti B-actin (Sigma ®), anti-Bax, anti-Bcl2, and anti-P53 (Abcam ®). The blots were then washed for three times (10 min each) with TBS-T. Finally, the membrane was incubated with the corresponding horse radish peroxidase (HRP)- linked secondary antibodies (Dako) for another hour at room temperature, followed by washing for three times (10 min each) with TBS-T. Then, the chemiluminescent reagent (ECL) was added according to the kit instructions and signals were detected by a CCD camera-based imager (Chemi Doc imager, Biorad, USA), and the bands intensities were measured by ImageLab (Biorad).

[2] = test system: P53 protein in HL60 cells; experiment: Western blot; format: cell-based, human
Procedure: as §1

[3] = test system: Bcl2 protein in HL60 cells; experiment: Western blot; format: cell-based, human
Procedure: as §1

[4] = test system: Bax protein in leukaemia SR cells; experiment: Western blot; format: cell-based, human
Procedure: as §1

[5] = test system: Bax protein in HL60 cells; experiment: Western blot; format: cell-based, human
Procedure: as §1

SF-268 = format: cell-based
786-0 = format: cell-based
PC-3 = format: cell-based
PI3Kβ = target: T1, PI3Kβ (Homo sapiens, UniProt P42338); experiment: PI3 Kinase Activity/Inhibitor Assay Kit; format: biochemical; details: mean of two independent replicates ± SD
T1 construct: purchased Millipore Corporation 17-493 (assay kit)
Procedure: In vitro PI3 kinases inhibitory activity assay
All buffers, working standards and samples were prepared.
A total of 5 μl/well 5X kinase reaction buffer was added following the addition of the substrate, then distilled water was added to fill up to 25 μl. After incubation for 1 h at room temperature, 25 μl of biotinylated PIP3/EDTA working solution was added to all wells except the buffer control. Instead, 25 μl tris-buffered saline (TBS) was added to the buffer control wells. A general receptor phosphoinsitides -1 working solution was added to all wells then, was incubated for 1 h at room temperature. After incubation, all wells were washed with 200 μl 1X TBS -Tween followed by addition of 50 μl (horseradish peroxide as econjugated streptavidin) SA -HRP then were incubated for 1 h at room temperature. All wells were washed using 100 μl 1X TBS -Tween and TBS followed by addition of 100 μl of substrate 3,3’,5,5’-tetramethylbenzidine and kept in dark for 5–20 min.

HCT-15 = format: cell-based
[6] = test system: Prostate cancer cell lines; experiment: NCI-60 five-dose, subpanel
Text: (§2) A measure of a compound’s selectivity for a given cell line is the ratio created by dividing the full panel mean graph midpoints (MG-MID) concentration by the individual subpanel MG-MID concentrations (obtained as the average sensitivity of all the cell lines in a given subpanel to the test compound).
(§3) Assessment of selectivity of a compound depends on the ratio obtained by dividing the full panel MID ^a by their individual subpanel MID ^b (µM) where MID^a is the average sensitivity of all cell lines towards the test agent (µM).

SW-620 = format: cell-based
[7] = test system: Ovarian cancer cell lines; experiment: NCI-60 five-dose, subpanel
Text: as §2, §3

KM12 = format: cell-based
HL-60(TB) = format: cell-based
[8] = test system: caspase 3 level in leukaemia SR cells; experiment: Caspase 3 ELISA; format: cell-based, human
Procedure: One of the most significant downstream caspases, Caspase-3, is referred to as an effector caspase[94]^,[95]. For further analysis, the effect of compound 1c on caspase 3 enzyme level was measured using ELISA kit (Invitrogen, Catalog # KHO1091) according to the manufacturer’s instructions. Briefly, 100 µl of the standard diluent buffer to the zero standard wells. Additionally, 100 µl of standards and controls or diluted samples were added to the appropriate microtiter wells, then wells were covered with plate cover and incubated for 2 h at R.T. Afterwards, wells were aspirated gently, washed with washing buffer 4 times. Furthermore, 100 µl of caspase 3 detection antibody was added into each well except the blank wells, and the plate was covered and incubated for 1 h at R.T. Then, the aspiration and washing steps were repeated again. Finally, 100 µl of the stabilised chromogen solution were added, plate was incubated for 30 min at R.T., stop solution was used to stop the reaction and the developed colour was measured at wave length 450 nm using plat ELISA reader.

NCI-H226 = format: cell-based
UO-31 = format: cell-based
SK-OV-3 = format: cell-based
HCT-116 = format: cell-based
K-562 = format: cell-based
[9] = Homo sapiens, five-dose, read-out: LC50 (the source's name)
[10] = Homo sapiens, one dose 10^-5 M, 48 h
[11] = Homo sapiens, one dose 10^-5 M, 48 h, read-out: % growth
[12] = Homo sapiens, read-out: GI50 Subpanel MID^b

T1 sequence (P42338 whole entry, species assumed): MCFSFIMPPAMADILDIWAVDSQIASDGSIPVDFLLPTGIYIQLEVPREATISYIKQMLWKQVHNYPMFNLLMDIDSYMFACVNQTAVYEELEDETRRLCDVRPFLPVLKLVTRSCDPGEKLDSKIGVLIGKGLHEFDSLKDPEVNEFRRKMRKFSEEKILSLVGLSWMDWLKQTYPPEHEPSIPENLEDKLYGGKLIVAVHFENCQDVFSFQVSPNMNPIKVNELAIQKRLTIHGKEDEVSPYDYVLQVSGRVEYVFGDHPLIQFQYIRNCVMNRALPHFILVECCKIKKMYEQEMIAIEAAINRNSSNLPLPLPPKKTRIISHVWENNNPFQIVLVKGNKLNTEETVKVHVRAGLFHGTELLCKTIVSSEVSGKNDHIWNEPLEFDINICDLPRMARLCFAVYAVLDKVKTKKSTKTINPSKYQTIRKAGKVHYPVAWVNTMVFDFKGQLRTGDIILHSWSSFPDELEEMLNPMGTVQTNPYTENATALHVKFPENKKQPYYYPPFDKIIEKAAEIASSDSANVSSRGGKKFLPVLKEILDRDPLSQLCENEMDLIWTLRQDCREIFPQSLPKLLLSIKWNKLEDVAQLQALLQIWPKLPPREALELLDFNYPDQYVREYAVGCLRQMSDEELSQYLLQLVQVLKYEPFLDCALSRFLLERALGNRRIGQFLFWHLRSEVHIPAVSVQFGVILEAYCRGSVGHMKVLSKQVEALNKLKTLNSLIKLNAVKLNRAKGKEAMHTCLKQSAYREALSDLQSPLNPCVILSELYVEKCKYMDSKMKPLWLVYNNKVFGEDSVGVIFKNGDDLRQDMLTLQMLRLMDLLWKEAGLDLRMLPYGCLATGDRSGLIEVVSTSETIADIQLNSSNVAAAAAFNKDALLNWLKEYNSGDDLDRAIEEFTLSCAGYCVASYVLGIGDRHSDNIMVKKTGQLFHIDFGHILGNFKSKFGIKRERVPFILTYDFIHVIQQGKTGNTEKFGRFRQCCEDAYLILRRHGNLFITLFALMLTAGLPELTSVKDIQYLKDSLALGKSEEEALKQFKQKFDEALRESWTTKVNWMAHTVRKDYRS
T1 sequence (P27986 whole entry partner, species assumed): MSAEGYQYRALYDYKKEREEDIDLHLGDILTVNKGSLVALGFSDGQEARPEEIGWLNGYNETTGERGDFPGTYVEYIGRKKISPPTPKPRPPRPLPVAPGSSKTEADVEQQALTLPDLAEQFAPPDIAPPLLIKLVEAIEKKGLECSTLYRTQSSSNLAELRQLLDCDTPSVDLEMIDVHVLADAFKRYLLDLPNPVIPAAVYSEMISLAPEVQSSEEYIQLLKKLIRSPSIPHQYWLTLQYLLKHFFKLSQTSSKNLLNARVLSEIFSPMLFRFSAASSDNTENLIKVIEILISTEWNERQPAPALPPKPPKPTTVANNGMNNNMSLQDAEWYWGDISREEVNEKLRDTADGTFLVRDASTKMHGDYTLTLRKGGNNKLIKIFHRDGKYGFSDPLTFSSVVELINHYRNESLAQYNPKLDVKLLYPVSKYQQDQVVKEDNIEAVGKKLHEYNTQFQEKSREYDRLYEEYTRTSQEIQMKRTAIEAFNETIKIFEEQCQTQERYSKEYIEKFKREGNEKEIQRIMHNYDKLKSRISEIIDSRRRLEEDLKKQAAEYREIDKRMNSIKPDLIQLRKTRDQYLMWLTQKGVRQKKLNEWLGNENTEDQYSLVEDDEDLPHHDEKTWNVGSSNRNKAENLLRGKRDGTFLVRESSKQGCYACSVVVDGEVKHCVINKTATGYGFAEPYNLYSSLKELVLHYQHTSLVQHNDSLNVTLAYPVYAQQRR

SMILES: N#Cc1c(N)nc(S)nc1-c1ccc(Cl)cc1Cl [Compound 1c, 4-Amino-6–(2,4-dichlorophenyl)-2-mercaptopyrimidine-5-carbonitrile]
- GI50 (ACHN; Homo sapiens, five-dose): 16.5 µM
- CC50 (ACHN; [9]): 62.1 µM
- % growth at 10 µM (ACHN; [10]): 19.6%
- TGI (ACHN; five-dose): 32.00 µM
- GI50 (SNB-19; Homo sapiens, five-dose): 17 µM
- CC50 (SNB-19; [9]): > 100 µM
- activity at 10 µM (SNB-19; [11]): 75.4%
- TGI (SNB-19; five-dose): 50.00 µM
- Bcl2 protein expression vs untreated control [1]: significantly inhibited the expression
- P53 protein expression vs untreated control [2]: increased the expression of P53 protein significantly
- Bcl2 protein expression vs untreated control [3]: significantly inhibited the expression
- Bax protein expression vs untreated control [4]: significantly increased the expression
- Bax protein expression vs untreated control [5]: significantly increased the expression
- GI50 (SF-268; Homo sapiens, five-dose): 18.1 µM
- CC50 (SF-268; [9]): > 100 µM
- activity at 10 µM (SF-268; [11]): 51%
- TGI (SF-268; five-dose): 52.70 µM
- GI50 (786-0; Homo sapiens, five-dose): 17.5 µM
- CC50 (786-0; [9]): 99.1 µM
- % growth at 10 µM (786-0; [10]): 67%
- TGI (786-0; five-dose): 41.60 µM
- GI50 (PC-3; Homo sapiens, five-dose): 11.1 µM
- CC50 (PC-3; [9]): > 100 µM
- percent cell growth at 10 µM (PC-3; [10]): 49.8%
- TGI (PC-3; five-dose): 48.20 µM
- IC50 (PI3Kβ): 0.55 ± 0.002 µM
- GI50 (HCT-15; Homo sapiens, five-dose): 0.08 µM
- CC50 (HCT-15; [9]): 97.9 µM
- activity at 10 µM (HCT-15; [11]): 10.9%
- TGI (HCT-15; five-dose): 17.90 µM
- GI50 [6, 12]: 13 µM
- Selectivity ratio (full panel MID^a / subpanel MID^b, GI50 level) ([6]; prostate cancer): 0.99
- GI50 (SW-620; Homo sapiens, five-dose): 12 µM
- LC50 (SW-620; Homo sapiens, five-dose): 78.6 µM
- % growth at 10 µM (SW-620; [10]): 45.7%
- TGI (SW-620; five-dose): 30.70 µM
- GI50 [7, 12]: 19.2 µM
- Selectivity ratio (full panel MID^a / subpanel MID^b, GI50 level) ([7]; ovarian cancer): 0.7
- GI50 (KM12; Homo sapiens, five-dose): 19 µM
- LC50 (KM12; Homo sapiens, five-dose): 80.1 µM
- % growth at 10 µM (KM12; [10]): 49.5%
- TGI (KM12; five-dose): 39.00 µM
- GI50 (HL-60(TB); Homo sapiens, five-dose): 0.08 µM
- CC50 (HL-60(TB); [9]): > 100 µM
- % growth at 10 µM (HL-60(TB); [10]): 5.3%
- TGI (HL-60(TB); five-dose): 1.82 µM
- caspase 3 level increase vs untreated control [8]: 3.4 folds
- GI50 (NCI-H226; Homo sapiens, five-dose): 16.5 µM
- LC50 (concentration killing 50% of tumour cells) (NCI-H226; Homo sapiens, five-dose): 82 µM
- % growth at 10 µM (NCI-H226; [10]): 64.4%
- TGI (NCI-H226; five-dose): 36.80 µM
- % cell growth at 10 µM (UO-31; Homo sapiens, UO-31, 48 h, one dose 10^-5 M, 48 h): 63.5%
- GI50 (UO-31; Homo sapiens, five-dose): 14.7 µM
- CC50 (UO-31; [9]): 53.6 µM
- TGI (UO-31; five-dose): 28.10 µM
- GI50 (SK-OV-3; Homo sapiens, five-dose): 26.3 µM
- LC50 (SK-OV-3; Homo sapiens, five-dose): > 100 µM
- % growth at 10 µM (SK-OV-3; [10]): 126%
- TGI (SK-OV-3; five-dose): 62.60 µM
- GI50 (HCT-116; Homo sapiens, five-dose): 0.06 µM
- CC50 (HCT-116; [9]): 63.6 µM
- activity at 10 µM (HCT-116; [11]): -18.8%
- TGI (HCT-116; five-dose): 17.90 µM
- % growth (HCT-116; one dose 10^-5 M, 48 h): -18.77%
- GI50 (K-562; Homo sapiens, K562, five-dose): 0.14 µM
- CC50 (K-562; Homo sapiens, K562, five-dose, read-out: LC50 (the source's name)): > 100 µM
- % growth at 10 µM (K-562; Homo sapiens, K562, one dose 10^-5 M, 48 h): 36.9%
- TGI (K-562; five-dose): >100 µM
